# Source: US12084430B2, “Tricyclic urea compounds as JAK2 V617F inhibitors” (Incyte Corporation, priority 2022, dated 2024)
# Assays:
# [1] = In vivo pharmacokinetics, cynomolgus monkey; set-up: species or system Cynomolgus monkeys; settings: both sexes, plasma, oral 3.0 mg/kg, read-out: CYNO PO AUC
# Procedure: (§1) Example H. In Vivo Pharmacokinetics
# (§2) Test compounds were administered to male Sprague Dawley rats or male and female Cynomolgus monkeys intravenously or via oral gavage. For intravenous (IV) dosing, test compounds were dosed at 1 mg/kg using a formulation of 10% dimethylacetamide (DMAC), 10% propylene glycol (PG) in acidified saline via IV bolus for rat or 10 min IV infusion for monkey. For oral (PO) dosing, test compounds were dosed at 3.0 mg/kg using 5% DMAC in 0.5% methylcellulose in citrate buffer (pH˜2.5). Blood samples were collected at predose and various time points up to 24 hours postdose. All blood samples were collected using EDTA as the anticoagulant and centrifuged to obtain plasma samples. The plasma concentrations of test compounds were determined by LC-MS/MS methods. The measured plasma concentrations were used to calculate PK parameters by standard noncompartmental methods using Phoenix® WinNonlin software program (version 8.0, Pharsight Corporation) or similar software. In rats and monkeys, cassette dosing of test compounds were conducted to obtain preliminary PK parameters. In vivo pharmacokinetic experiments with male beagle dogs may be performed under the conditions described above.
# [2] = In vivo pharmacokinetics, rat; set-up: species or system Sprague Dawley rats; settings: male, Sprague Dawley, plasma, oral 3.0 mg/kg
# Procedure: as §1, §2
smiles,measurement,setting,value
"COC(=O)N[C@@H]1CC[C@@H](n2c(=O)n(C)c3cnc4[nH]c(-c5cn(C)nc5OC)c(-c5ccc(F)cc5)c4c32)C1 [Example 1, Methyl ((1R,3R)-3-(8-(4-fluorophenyl)-7-(3-methoxy-1-methyl-1H-pyrazol-4-yl)-3-methyl-2-oxo-3,6-dihydroimidazo[4,5-d]pyrrolo[2,3-b]pyridin-1(2H)-yl)cyclopentyl)carbamate]",AUC,[1],> 1.5 µM·h
same,AUC,[2],> 1.5 µM·h
"COC(=O)N[C@@H]1CC[C@@H](n2c(=O)n(C)c3cnc4[nH]c(-c5cn(C)nc5OC)c(-c5ccccc5)c4c32)C1 [Example 2, Methyl ((1R,3R)-3-(7-(3-methoxy-1-methyl-1H-pyrazol-4-yl)-3-methyl-2-oxo-8-phenyl-3,6-dihydroimidazo[4,5-d]pyrrolo[2,3-b]pyridin-1(2H)-yl)cyclopentyl)carbamate]",AUC,[1],> 1.5 µM·h
same,AUC,[2],> 1.5 µM·h
"COC(=O)N[C@@H]1CC[C@@H](n2c(=O)n(C)c3cnc4[nH]c(-c5cn(C)nc5OC)c(-c5cccc(F)c5)c4c32)C1 [Example 3, Methyl ((1R,3R)-3-(8-(3-fluorophenyl)-7-(3-methoxy-1-methyl-1H-pyrazol-4-yl)-3-methyl-2-oxo-3,6-dihydroimidazo[4,5-d]pyrrolo[2,3-b]pyridin-1(2H)-yl)cyclopentyl)carbamate]",AUC,[1],> 1.5 µM·h
same,AUC,[2],> 1.5 µM·h
"COC(=O)N[C@@H]1CC[C@@H](n2c(=O)n(C)c3cnc4[nH]c(-c5cn(C)nc5OC)c(-c5ccc(OC)c(F)c5)c4c32)C1 [Example 4, Methyl ((1R,3R)-3-(8-(3-fluoro-4-methoxyphenyl)-7-(3-methoxy-1-methyl-1H-pyrazol-4-yl)-3-methyl-2-oxo-3,6-dihydroimidazo[4,5-d]pyrrolo[2,3-b]pyridin-1(2H)-yl)cyclopentyl)carbamate]",AUC,[1],> 1.5 µM·h
same,AUC,[2],> 1.5 µM·h
"[2H]C([2H])([2H])n1ncc2cc(-c3c(-c4cn(C)nc4OC)[nH]c4ncc5c(c34)n([C@@H]3CC[C@@H](NC(=O)OC)C3)c(=O)n5C)ccc21 [Example 5, Methyl ((1R,3R)-3-(7-(3-methoxy-1-methyl-1H-pyrazol-4-yl)-3-methyl-8-(1-(methyl-d3)-1H-indazol-5-yl)-2-oxo-3,6-dihydroimidazo[4,5-d]pyrrolo[2,3-b]pyridin-1(2H)-yl)cyclopentyl)carbamate]",AUC,[1],> 1.5 µM·h
same,AUC,[2],0.5 to 1.5 µM·h
"[2H]C([2H])([2H])n1cc(-c2[nH]c3ncc4c(c3c2-c2ccc3c(cnn3C([2H])([2H])[2H])c2)n([C@@H]2CC[C@@H](NC(=O)OC)C2)c(=O)n4C([2H])([2H])[2H])c(F)n1 [Example 6, Methyl ((1R,3R)-3-(7-(3-fluoro-1-(methyl-d3)-1H-pyrazol-4-yl)-3-(methyl-d3)-8-(1-(methyl-d3)-1H-indazol-5-yl)-2-oxo-3,6-dihydroimidazo[4,5-d]pyrrolo[2,3-b]pyridin-1(2H)-yl)cyclopentyl)carbamate]",AUC,[1],> 1.5 µM·h
same,AUC,[2],0.5 to 1.5 µM·h
"[2H]C([2H])([2H])n1cc(-c2[nH]c3ncc4c(c3c2-c2ccc(F)cc2)n([C@@H]2CC[C@@H](NC(=O)OC)C2)c(=O)n4C([2H])([2H])[2H])c(F)n1 [Example 7, Methyl ((1R,3R)-3-(7-(3-fluoro-1-(methyl-d3)-1H-pyrazol-4-yl)-8-(4-fluorophenyl)-3-(methyl-d3)-2-oxo-3,6-dihydroimidazo[4,5-d]pyrrolo[2,3-b]pyridin-1(2H)-yl)cyclopentyl)carbamate]",AUC,[1],> 1.5 µM·h
same,AUC,[2],> 1.5 µM·h
"[2H]C([2H])([2H])n1cc(-c2[nH]c3ncc4c(c3c2-c2ccc3c(c2)COC3(C)C)n([C@@H]2CC[C@@H](NC(=O)OC)C2)c(=O)n4C([2H])([2H])[2H])c(F)n1 [Example 8, Methyl ((1R,3R)-3-(8-(1,1-dimethyl-1,3-dihydroisobenzofuran-5-yl)-7-(3-fluoro-1-(methyl-d3)-1H-pyrazol-4-yl)-3-(methyl-d3)-2-oxo-3,6-dihydroimidazo[4,5-d]pyrrolo[2,3-b]pyridin-1(2H)-yl)cyclopentyl)carbamate]",AUC,[1],≤ 0.5 µM·h
same,AUC,[2],> 1.5 µM·h
"[2H]C([2H])([2H])Oc1ccc(-c2c(-c3cn(C([2H])([2H])[2H])nc3F)[nH]c3ncc4c(c23)n([C@@H]2CC[C@@H](NC(=O)OC)C2)c(=O)n4C([2H])([2H])[2H])cc1 [Example 9, Methyl ((1R,3R)-3-(7-(3-fluoro-1-(methyl-d3)-1H-pyrazol-4-yl)-8-(4-(methoxy-d3)phenyl)-3-(methyl-d3)-2-oxo-3,6-dihydroimidazo[4,5-d]pyrrolo[2,3-b]pyridin-1(2H)-yl)cyclopentyl)carbamate]",AUC,[1],> 1.5 µM·h
same,AUC,[2],> 1.5 µM·h
"[2H]C([2H])([2H])n1cc(-c2[nH]c3ncc4c(c3c2-c2ccc(C(C)(C)O)cc2)n([C@@H]2CC[C@@H](NC(=O)OC)C2)c(=O)n4C([2H])([2H])[2H])c(F)n1 [Example 10, Methyl ((1R,3R)-3-(7-(3-fluoro-1-(methyl-d3)-1H-pyrazol-4-yl)-8-(4-(2-hydroxypropan-2-yl)phenyl)-3-(methyl-d3)-2-oxo-3,6-dihydroimidazo[4,5-d]pyrrolo[2,3-b]pyridin-1(2H)-yl)cyclopentyl)carbamate]",AUC,[1],0.5 to 1.5 µM·h
same,AUC,[2],> 1.5 µM·h
"[2H]C([2H])([2H])n1cc(-c2[nH]c3ncc4c(c3c2-c2ccc3c(cnn3C(C)C)c2)n([C@@H]2CC[C@@H](NC(=O)OC)C2)c(=O)n4C([2H])([2H])[2H])c(F)n1 [Example 13, Methyl ((1R,3R)-3-(7-(3-fluoro-1-(methyl-d3)-1H-pyrazol-4-yl)-8-(1-isopropyl-1H-indazol-5-yl)-3-(methyl-d3)-2-oxo-3,6-dihydroimidazo[4,5-d]pyrrolo[2,3-b]pyridin-1(2H)-yl)cyclopentyl)carbamate]",AUC,[2],0.5 to 1.5 µM·h
"[2H]C([2H])([2H])n1cc(-c2[nH]c3ncc4c(c3c2-c2ccc3c(cnn3CC(F)F)c2)n([C@@H]2CC[C@@H](NC(=O)OC)C2)c(=O)n4C([2H])([2H])[2H])c(F)n1 [Example 14, Methyl ((1R,3R)-3-(8-(1-(2,2-difluoroethyl)-1H-indazol-5-yl)-7-(3-fluoro-1-(methyl-d3)-1H-pyrazol-4-yl)-3-(methyl-d3)-2-oxo-3,6-dihydroimidazo[4,5-d]pyrrolo[2,3-b]pyridin-1(2H)-yl)cyclopentyl)carbamate]",AUC,[2],0.5 to 1.5 µM·h
"[2H]C([2H])([2H])n1ncc2cc(-c3c(-c4cn(C([2H])([2H])C([2H])([2H])[2H])nc4F)[nH]c4ncc5c(c34)n([C@@H]3CC[C@@H](NC(=O)OC)C3)c(=O)n5C([2H])([2H])[2H])ccc21 [Example 15, Methyl ((1R,3R)-3-(7-(1-(ethyl-d5)-3-fluoro-1H-pyrazol-4-yl)-3-(methyl-d3)-8-(1-(methyl-d3)-1H-indazol-5-yl)-2-oxo-3,6-dihydroimidazo[4,5-d]pyrrolo[2,3-b]pyridin-1(2H)-yl)cyclopentyl)carbamate]",AUC,[2],0.5 to 1.5 µM·h
